# Experimental data published in ChEMBL document CHEMBL2429768, “Eco-friendly synthesis and antimicrobial activities of substituted-5-(1H-indol-3-yl)methylene)-2,2-dimethyl-1,3-dioxane-4,6-dione derivatives” (2013).
# Key:
# Format in all cases: functional
# Staphylococcus aureus [1] = assay: Antibacterial activity against Staphylococcus aureus ATCC 6538 at 100 ug/ml after 24 hrs by agar well diffusion method; conditions: ATCC 6538, 24 h, read-out: DIZ
# Klebsiella pneumoniae [2] = assay: Antibacterial activity against Klebsiella pneumoniae after 24 hrs by agar well diffusion method
# Staphylococcus aureus [3] = assay: Antibacterial activity against Staphylococcus aureus ATCC 6538 at 50 ug/ml after 24 hrs by agar well diffusion method; conditions: ATCC 6538, 24 h, read-out: DIZ
# Fusarium oxysporum [4] = assay: Antifungal activity against Fusarium oxysporum at 50 ug/ml after 72 hrs by agar well diffusion method; conditions: read-out: DIZ
# Aspergillus flavus [5] = assay: Antifungal activity against Aspergillus flavus at 200 ug/ml after 72 hrs by agar well diffusion method; conditions: read-out: DIZ
# Klebsiella pneumoniae [6] = assay: Antibacterial activity against Klebsiella pneumoniae at 100 ug/ml after 24 hrs by agar well diffusion method; conditions: read-out: DIZ
# Klebsiella pneumoniae [7] = assay: Antibacterial activity against Klebsiella pneumoniae at 200 ug/ml after 24 hrs by agar well diffusion method; conditions: read-out: DIZ
# Aspergillus niger [8] = assay: Antifungal activity against Aspergillus niger at 50 ug/ml after 72 hrs by agar well diffusion method; conditions: read-out: DIZ
# Klebsiella pneumoniae [9] = assay: Antibacterial activity against Klebsiella pneumoniae at 500 ug/ml after 24 hrs by agar well diffusion method; conditions: read-out: DIZ
# Klebsiella pneumoniae [10] = assay: Antibacterial activity against Klebsiella pneumoniae at 50 ug/ml after 24 hrs by agar well diffusion method; conditions: read-out: DIZ
# Aspergillus flavus [11] = assay: Antifungal activity against Aspergillus flavus at 100 ug/ml after 72 hrs by agar well diffusion method; conditions: read-out: DIZ
# Bacillus subtilis [12] = assay: Antibacterial activity against Bacillus subtilis after 24 hrs by agar well diffusion method
# Escherichia coli [13] = assay: Antibacterial activity against Escherichia coli ATCC 8739 at 300 ug/ml after 24 hrs by agar well diffusion method; conditions: ATCC 8739, 24 h, read-out: DIZ
# Aspergillus niger [14] = assay: Antifungal activity against Aspergillus niger at 100 ug/ml after 72 hrs by agar well diffusion method; conditions: read-out: DIZ
# Rhizoctonia solani [15] = assay: Antifungal activity against Rhizoctonia solani at 300 ug/ml after 72 hrs by agar well diffusion method; conditions: read-out: DIZ
# Staphylococcus aureus [16] = assay: Antibacterial activity against Staphylococcus aureus ATCC 6538 at 200 ug/ml after 24 hrs by agar well diffusion method; conditions: ATCC 6538, 24 h, read-out: DIZ
# Bacillus subtilis [17] = assay: Antibacterial activity against Bacillus subtilis at 100 ug/ml after 24 hrs by agar well diffusion method; conditions: read-out: DIZ
# Fusarium oxysporum [18] = assay: Antifungal activity against Fusarium oxysporum at 300 ug/ml after 72 hrs by agar well diffusion method; conditions: read-out: DIZ
# Bacillus subtilis [19] = assay: Antibacterial activity against Bacillus subtilis at 200 ug/ml after 24 hrs by agar well diffusion method; conditions: read-out: DIZ
# Bacillus subtilis [20] = assay: Antibacterial activity against Bacillus subtilis at 500 ug/ml after 24 hrs by agar well diffusion method; conditions: read-out: DIZ
# Aspergillus flavus [21] = assay: Antifungal activity against Aspergillus flavus after 72 hrs by agar well diffusion method
# Escherichia coli [22] = assay: Antibacterial activity against Escherichia coli ATCC 8739 at 50 ug/ml after 24 hrs by agar well diffusion method; conditions: ATCC 8739, 24 h, read-out: DIZ
# Bacillus subtilis [23] = assay: Antibacterial activity against Bacillus subtilis at 300 ug/ml after 24 hrs by agar well diffusion method; conditions: read-out: DIZ
# Rhizoctonia solani [24] = assay: Antifungal activity against Rhizoctonia solani at 100 ug/ml after 72 hrs by agar well diffusion method; conditions: read-out: DIZ
# Fusarium oxysporum [25] = assay: Antifungal activity against Fusarium oxysporum at 500 ug/ml after 72 hrs by agar well diffusion method; conditions: read-out: DIZ
# Aspergillus flavus [26] = assay: Antifungal activity against Aspergillus flavus at 50 ug/ml after 72 hrs by agar well diffusion method; conditions: read-out: DIZ
# Staphylococcus aureus [27] = assay: Antibacterial activity against Staphylococcus aureus ATCC 6538 at 300 ug/ml after 24 hrs by agar well diffusion method; conditions: ATCC 6538, 24 h, read-out: DIZ
# Fusarium oxysporum [28] = assay: Antifungal activity against Fusarium oxysporum after 72 hrs by agar well diffusion method
# Rhizoctonia solani [29] = assay: Antifungal activity against Rhizoctonia solani after 72 hrs by agar well diffusion method
# Bacillus subtilis [30] = assay: Antibacterial activity against Bacillus subtilis at 50 ug/ml after 24 hrs by agar well diffusion method; conditions: read-out: DIZ
# Aspergillus flavus [31] = assay: Antifungal activity against Aspergillus flavus at 300 ug/ml after 72 hrs by agar well diffusion method; conditions: read-out: DIZ
# Aspergillus niger [32] = assay: Antifungal activity against Aspergillus niger at 200 ug/ml after 72 hrs by agar well diffusion method; conditions: read-out: DIZ
# Fusarium oxysporum [33] = assay: Antifungal activity against Fusarium oxysporum at 100 ug/ml after 72 hrs by agar well diffusion method; conditions: read-out: DIZ
# Rhizoctonia solani [34] = assay: Antifungal activity against Rhizoctonia solani at 500 ug/ml after 72 hrs by agar well diffusion method; conditions: read-out: DIZ
# Fusarium oxysporum [35] = assay: Antifungal activity against Fusarium oxysporum at 200 ug/ml after 72 hrs by agar well diffusion method; conditions: read-out: DIZ
# Aspergillus niger [36] = assay: Antifungal activity against Aspergillus niger after 72 hrs by agar well diffusion method
# Klebsiella pneumoniae [37] = assay: Antibacterial activity against Klebsiella pneumoniae at 300 ug/ml after 24 hrs by agar well diffusion method; conditions: read-out: DIZ
# Staphylococcus aureus [38] = assay: Antibacterial activity against Staphylococcus aureus ATCC 6538 after 24 hrs by agar well diffusion method; conditions: ATCC 6538, 24 h
# Aspergillus niger [39] = assay: Antifungal activity against Aspergillus niger at 300 ug/ml after 72 hrs by agar well diffusion method; conditions: read-out: DIZ
# Escherichia coli [40] = assay: Antibacterial activity against Escherichia coli ATCC 8739 at 100 ug/ml after 24 hrs by agar well diffusion method; conditions: ATCC 8739, 24 h, read-out: DIZ
# Staphylococcus aureus [41] = assay: Antibacterial activity against Staphylococcus aureus ATCC 6538 at 500 ug/ml after 24 hrs by agar well diffusion method; conditions: ATCC 6538, 24 h, read-out: DIZ
# Escherichia coli [42] = assay: Antibacterial activity against Escherichia coli ATCC 8739 after 24 hrs by agar well diffusion method; conditions: ATCC 8739, 24 h
# Rhizoctonia solani [43] = assay: Antifungal activity against Rhizoctonia solani at 50 ug/ml after 72 hrs by agar well diffusion method; conditions: read-out: DIZ
# Escherichia coli [44] = assay: Antibacterial activity against Escherichia coli ATCC 8739 at 200 ug/ml after 24 hrs by agar well diffusion method; conditions: ATCC 8739, 24 h, read-out: DIZ
# Escherichia coli [45] = assay: Antibacterial activity against Escherichia coli ATCC 8739 at 500 ug/ml after 24 hrs by agar well diffusion method; conditions: ATCC 8739, 24 h, read-out: DIZ
# Aspergillus flavus [46] = assay: Antifungal activity against Aspergillus flavus at 500 ug/ml after 72 hrs by agar well diffusion method; conditions: read-out: DIZ
# Rhizoctonia solani [47] = assay: Antifungal activity against Rhizoctonia solani at 200 ug/ml after 72 hrs by agar well diffusion method; conditions: read-out: DIZ
# Aspergillus niger [48] = assay: Antifungal activity against Aspergillus niger at 500 ug/ml after 72 hrs by agar well diffusion method; conditions: read-out: DIZ
smiles,measurement,setting,value
CCn1cc(C=C2C(=O)OC(C)(C)OC2=O)c2ccccc21,zone of inhibition at 100 µg/mL,Staphylococcus aureus [1],10 mm
same,MIC,Klebsiella pneumoniae [2],15 µg/mL
same,zone of inhibition at 50 µg/mL,Staphylococcus aureus [3],6 mm
same,zone of inhibition at 50 µg/mL,Fusarium oxysporum [4],7 mm
same,zone of inhibition at 200 µg/mL,Aspergillus flavus [5],12 mm
same,zone of inhibition at 100 µg/mL,Klebsiella pneumoniae [6],14 mm
same,zone of inhibition at 200 µg/mL,Klebsiella pneumoniae [7],18 mm
same,zone of inhibition at 50 µg/mL,Aspergillus niger [8],6 mm
same,zone of inhibition at 500 µg/mL,Klebsiella pneumoniae [9],31 mm
same,zone of inhibition at 50 µg/mL,Klebsiella pneumoniae [10],9 mm
same,zone of inhibition at 100 µg/mL,Aspergillus flavus [11],9 mm
same,MIC,Bacillus subtilis [12],30 µg/mL
same,zone of inhibition at 300 µg/mL,Escherichia coli [13],20 mm
same,zone of inhibition at 100 µg/mL,Aspergillus niger [14],10 mm
same,zone of inhibition at 300 µg/mL,Rhizoctonia solani [15],21 mm
same,zone of inhibition at 200 µg/mL,Staphylococcus aureus [16],14 mm
same,zone of inhibition at 100 µg/mL,Bacillus subtilis [17],9 mm
same,zone of inhibition at 300 µg/mL,Fusarium oxysporum [18],21 mm
same,zone of inhibition at 200 µg/mL,Bacillus subtilis [19],11 mm
same,zone of inhibition at 500 µg/mL,Bacillus subtilis [20],22 mm
same,MIC,Aspergillus flavus [21],40 µg/mL
same,zone of inhibition at 50 µg/mL,Escherichia coli [22],8 mm
same,zone of inhibition at 300 µg/mL,Bacillus subtilis [23],14 mm
same,zone of inhibition at 100 µg/mL,Rhizoctonia solani [24],12 mm
same,zone of inhibition at 500 µg/mL,Fusarium oxysporum [25],29 mm
same,zone of inhibition at 50 µg/mL,Aspergillus flavus [26],4 mm
same,zone of inhibition at 300 µg/mL,Staphylococcus aureus [27],18 mm
same,MIC,Fusarium oxysporum [28],35 µg/mL
same,MIC,Rhizoctonia solani [29],35 µg/mL
same,zone of inhibition at 50 µg/mL,Bacillus subtilis [30],4 mm
same,zone of inhibition at 300 µg/mL,Aspergillus flavus [31],15 mm
same,zone of inhibition at 200 µg/mL,Aspergillus niger [32],14 mm
same,zone of inhibition at 100 µg/mL,Fusarium oxysporum [33],12 mm
same,zone of inhibition at 500 µg/mL,Rhizoctonia solani [34],29 mm
same,zone of inhibition at 200 µg/mL,Fusarium oxysporum [35],16 mm
same,MIC,Aspergillus niger [36],40 µg/mL
same,zone of inhibition at 300 µg/mL,Klebsiella pneumoniae [37],23 mm
same,MIC,Staphylococcus aureus [38],25 µg/mL
same,zone of inhibition at 300 µg/mL,Aspergillus niger [39],18 mm
same,zone of inhibition at 100 µg/mL,Escherichia coli [40],13 mm
same,zone of inhibition at 500 µg/mL,Staphylococcus aureus [41],25 mm
same,MIC,Escherichia coli [42],15 µg/mL
same,zone of inhibition at 50 µg/mL,Rhizoctonia solani [43],7 mm
same,zone of inhibition at 200 µg/mL,Escherichia coli [44],16 mm
same,zone of inhibition at 500 µg/mL,Escherichia coli [45],30 mm
same,zone of inhibition at 500 µg/mL,Aspergillus flavus [46],23 mm
same,zone of inhibition at 200 µg/mL,Rhizoctonia solani [47],16 mm
same,zone of inhibition at 500 µg/mL,Aspergillus niger [48],25 mm
